Source: the supplement of paper PMC10307832

Experiments:
Assay in all cases: relative viability (nuclei count vs DMSO), 5 days (fraction); higher = more cells survive
Calu-6 = test system: Calu-6
Summary of the method: (§1)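 Lung cancer cell lines, seeded in 1536-well plates, were treated the following day by pin tool with a single drug or with five library-drug doses (not always all listed) in √10 steps on top of a fixed anchor-drug dose. Cells were fixed and nuclei stained in one step after 5 days, and nuclei were counted. Relative viability is the nuclei count for treated wells divided by that for vehicle wells, reported as medians of duplicate plates.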

NCI-H1299 = test system: NCI-H1299
Summary of the method: as §1

EBC-1 = test system: EBC-1
Summary of the method: as §1

NCI-H1355 = test system: NCI-H1355
Summary of the method: as §1

IA-LM = test system: IA-LM
Summary of the method: as §1

NCI-H23 = test system: NCI-H23
Summary of the method: as §1

NCI-H1993 = test system: NCI-H1993
Summary of the method: as §1

NCI-H1703 = test system: NCI-H1703
Summary of the method: as §1

NCI-H322M = test system: NCI-H322M
Summary of the method: as §1

UMC-11 = test system: UMC-11
Summary of the method: as §1

LCLC-97TM1 = test system: LCLC-97TM1
Summary of the method: as §1

NCI-H596 = test system: NCI-H596
Summary of the method: as §1

A549 = test system: A549
Summary of the method: as §1

COc1nc(C)cnc1NS(=O)(=O)c1cccnc1-c1ccc(-c2nnco2)cc1 [Zibotentan] + CC1(C)CCC(c2ccc(Cl)cc2)=C(CN2CCN(c3ccc(C(=O)NS(=O)(=O)c4ccc(N[C@H](CCN5CCOCC5)CSc5ccccc5)c(S(=O)(=O)C(F)(F)F)c4)cc3)CC2)C1 [Navitoclax] (partner 0.5 µM)
relative viability (Calu-6; first compound 0.08 µM): 0.832 | relative viability (Calu-6; first compound 0.253 µM): 0.79 | relative viability (Calu-6; first compound 0.8 µM): 0.888 | relative viability (Calu-6; first compound 2.53 µM): 0.894 | relative viability (NCI-H1299; first compound 0.08 µM): 1.05 | relative viability (NCI-H1299; first compound 0.253 µM): 0.998 | relative viability (NCI-H1299; first compound 0.8 µM): 1.05 | relative viability (NCI-H1299; first compound 2.53 µM): 1.05 | relative viability (EBC-1; first compound 0.08 µM): 0.487 | relative viability (EBC-1; first compound 0.253 µM): 0.499 | relative viability (EBC-1; first compound 0.8 µM): 0.477 | relative viability (EBC-1; first compound 2.53 µM): 0.38 | relative viability (NCI-H1355; first compound 0.08 µM): 0.991 | relative viability (NCI-H1355; first compound 0.253 µM): 0.968 | relative viability (NCI-H1355; first compound 0.8 µM): 0.928 | relative viability (NCI-H1355; first compound 2.53 µM): 1.1 | relative viability (IA-LM; first compound 0.08 µM): 0.764 | relative viability (IA-LM; first compound 0.253 µM): 0.688 | relative viability (IA-LM; first compound 0.8 µM): 0.682 | relative viability (IA-LM; first compound 2.53 µM): 0.699 | relative viability (NCI-H23; first compound 0.08 µM): 0.906 | relative viability (NCI-H23; first compound 0.253 µM): 0.773 | relative viability (NCI-H23; first compound 0.8 µM): 0.872 | relative viability (NCI-H23; first compound 2.53 µM): 0.853 | relative viability (NCI-H1993; first compound 0.253 µM): 0.955 | relative viability (NCI-H1993; first compound 0.8 µM): 0.813 | relative viability (NCI-H1993; first compound 2.53 µM): 0.956 | relative viability (NCI-H1703; first compound 0.08 µM): 1.15 | relative viability (NCI-H1703; first compound 0.253 µM): 1.08 | relative viability (NCI-H1703; first compound 0.8 µM): 1.25 | relative viability (NCI-H1703; first compound 2.53 µM): 1.03 | relative viability (NCI-H322M; first compound 0.08 µM): 1.12 | relative viability (NCI-H322M; first compound 0.253 µM): 1.18 | relative viability (NCI-H322M; first compound 0.8 µM): 1.23 | relative viability (NCI-H322M; first compound 2.53 µM): 1.3 | relative viability (UMC-11; first compound 0.08 µM): 0.303 | relative viability (UMC-11; first compound 0.253 µM): 0.32 | relative viability (UMC-11; first compound 0.8 µM): 0.293 | relative viability (UMC-11; first compound 2.53 µM): 0.302 | relative viability (LCLC-97TM1; first compound 0.08 µM): 0.365 | relative viability (LCLC-97TM1; first compound 0.253 µM): 0.402 | relative viability (LCLC-97TM1; first compound 0.8 µM): 0.403 | relative viability (LCLC-97TM1; first compound 2.53 µM): 0.447 | relative viability (NCI-H596; first compound 0.08 µM): 1.19 | relative viability (NCI-H596; first compound 0.253 µM): 0.896 | relative viability (NCI-H596; first compound 0.8 µM): 0.958 | relative viability (NCI-H596; first compound 2.53 µM): 1.05 | relative viability (A549; first compound 0.08 µM): 1.45 | relative viability (A549; first compound 0.253 µM): 1.18 | relative viability (A549; first compound 0.8 µM): 1.26 | relative viability (A549; first compound 2.53 µM): 1.2

O=c1cc(N2CCOCC2)oc2c(-c3cccc4c3sc3ccccc34)cccc12 + Cc1nc(NC(=O)N2CCC[C@H]2C(N)=O)sc1-c1ccnc(C(C)(C)C(F)(F)F)c1 [Alpelisib] (partner 2 µM)
relative viability (Calu-6; first compound 0.01 µM): 0.98 | relative viability (Calu-6; first compound 0.03162 µM): 1.05 | relative viability (Calu-6; first compound 0.1 µM): 1.01 | relative viability (Calu-6; first compound 0.3162 µM): 1.04 | relative viability (Calu-6; first compound 1 µM): 0.974 | relative viability (NCI-H1299; first compound 0.01 µM): 1.05 | relative viability (NCI-H1299; first compound 0.03162 µM): 1.07 | relative viability (NCI-H1299; first compound 0.1 µM): 1.11 | relative viability (NCI-H1299; first compound 0.3162 µM): 1.09 | relative viability (NCI-H1299; first compound 1 µM): 1.09 | relative viability (EBC-1; first compound 0.01 µM): 0.977 | relative viability (EBC-1; first compound 0.03162 µM): 0.77 | relative viability (EBC-1; first compound 0.1 µM): 0.837 | relative viability (EBC-1; first compound 0.3162 µM): 0.966 | relative viability (EBC-1; first compound 1 µM): 0.827 | relative viability (NCI-H1355; first compound 0.01 µM): 0.871 | relative viability (NCI-H1355; first compound 0.03162 µM): 0.855 | relative viability (NCI-H1355; first compound 0.3162 µM): 0.903 | relative viability (NCI-H1355; first compound 1 µM): 0.82 | relative viability (IA-LM; first compound 0.01 µM): 0.837 | relative viability (IA-LM; first compound 0.03162 µM): 0.769 | relative viability (IA-LM; first compound 0.1 µM): 0.828 | relative viability (IA-LM; first compound 0.3162 µM): 0.736 | relative viability (IA-LM; first compound 1 µM): 0.735 | relative viability (NCI-H23; first compound 0.01 µM): 0.71 | relative viability (NCI-H23; first compound 0.03162 µM): 0.662 | relative viability (NCI-H23; first compound 0.3162 µM): 0.665 | relative viability (NCI-H23; first compound 1 µM): 0.745 | relative viability (NCI-H1993; first compound 0.01 µM): 0.658 | relative viability (NCI-H1993; first compound 0.03162 µM): 0.741 | relative viability (NCI-H1993; first compound 0.1 µM): 0.797 | relative viability (NCI-H1993; first compound 0.3162 µM): 0.791 | relative viability (NCI-H1993; first compound 1 µM): 0.722 | relative viability (NCI-H1703; first compound 0.01 µM): 0.538 | relative viability (NCI-H1703; first compound 0.03162 µM): 0.33 | relative viability (NCI-H1703; first compound 0.1 µM): 0.331 | relative viability (NCI-H1703; first compound 0.3162 µM): 0.317 | relative viability (NCI-H1703; first compound 1 µM): 0.317 | relative viability (NCI-H322M; first compound 0.01 µM): 0.804 | relative viability (NCI-H322M; first compound 0.03162 µM): 0.721 | relative viability (NCI-H322M; first compound 0.3162 µM): 0.82 | relative viability (NCI-H322M; first compound 1 µM): 0.813 | relative viability (UMC-11; first compound 0.01 µM): 0.995 | relative viability (UMC-11; first compound 0.03162 µM): 1.01 | relative viability (UMC-11; first compound 0.1 µM): 0.986 | relative viability (UMC-11; first compound 0.3162 µM): 0.979 | relative viability (UMC-11; first compound 1 µM): 0.872 | relative viability (LCLC-97TM1; first compound 0.01 µM): 0.287 | relative viability (LCLC-97TM1; first compound 0.03162 µM): 0.269 | relative viability (LCLC-97TM1; first compound 0.3162 µM): 0.201 | relative viability (LCLC-97TM1; first compound 1 µM): 0.244 | relative viability (NCI-H596; first compound 0.01 µM): 0.469 | relative viability (NCI-H596; first compound 0.03162 µM): 0.506 | relative viability (NCI-H596; first compound 0.1 µM): 0.451 | relative viability (NCI-H596; first compound 0.3162 µM): 0.474 | relative viability (NCI-H596; first compound 1 µM): 0.522 | relative viability (A549; first compound 0.01 µM): 0.866 | relative viability (A549; first compound 0.03162 µM): 0.775 | relative viability (A549; first compound 0.1 µM): 0.814 | relative viability (A549; first compound 0.3162 µM): 0.811 | relative viability (A549; first compound 1 µM): 0.845
